Source: patent publication US11627753B2, “Solubilized steviol glycoside compositions” (JAMES AND CAROL MAY FAMILY, LLLP, priority 2014, dated 2023)

Experiment: Precipitation from aqueous solution in the absence of the emulsifier
Format: physicochemical
Conditions: without natural emulsifier
Description: In accordance with various exemplary embodiments of the present technology, the sweetener composition may comprise a natural emulsifier. The natural emulsifier may function to disperse the stevia glycosides through an aqueous solution such as water. The dissolved concentration of the stevia glycosides in the aqueous solution may be higher in the presence of the natural emulsifier than in the absence of the natural emulsifier. For example, rebaudioside A present in amounts of 11% by weight or greater may precipitate from an aqueous solution. In various embodiments of the present technology, the natural emulsifier may allow rebaudioside A to be present in aqueous solution in amounts of up to about 20% by weight without precipitation. In some embodiments, adding the natural emulsifier to an aqueous (ie., water-based) solution of stevia glycosides may stabilize the solubility of the sweetener composition including reducing or eliminating the precipitation of solids from the solution by binding any of the components to prevent separation of the finished sweetener composition.
In various embodiments, the solubility of the aqueous sweetener composition may remain stable for more than five days at room temperature. In some embodiments, the solubility of the aqueous sweetener composition may remain a stable for at least six months at room temperature. […]

amount at which it may precipitate from an aqueous solution: ≥ 11 % by weight
Compound: C=C1C[C@@]23CC[C@H]4[C@@](C)(CCC[C@@]4(C)C(=O)O[C@@H]4O[C@H](CO)[C@@H](O)[C@H](O)[C@H]4O)[C@@H]2CC[C@]1(O[C@@H]1O[C@H](CO)[C@@H](O)[C@H](O[C@@H]2O[C@H](CO)[C@@H](O)[C@H](O)[C@H]2O)[C@H]1O[C@@H]1O[C@H](CO)[C@@H](O)[C@H](O)[C@H]1O)C3 [rebaudioside A]
